Several values for one entry are separate records, joined by “and”; a condition that tells them apart may be missing. Equal values may be shown once. Read-outs that look alike come from different tables or passages of the source.
Assays:
[1] = system: secretion of ApoB by HepG2 cells; experiment: ApoB secretion inhibition assay in HepG2 cells (ApoB ELISA); format: cell-based, human; details: Homo sapiens
Method in brief: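 HepG2 cells were serum-starved for 24 h, then treated for 24 h in DMEM with 1% BSA, 0.3 mM BSA-complexed oleic acid and 0.1% DMSO. Secreted ApoB in conditioned medium was measured by sandwich ELISA (A450). Viability was checked by AlamarBlue fluorescence.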

[2] = molecular target: T1, MTP (Homo sapiens, UniProt P55157); experiment: In vitro inhibition of MTP, triacylglycerol transfer assay with donor and acceptor liposomes (fluorescence); format: biochemical
Experimental: This assay is commercially available (Cat. #D400, Chylos Inc., New York). Liposomes are pipetted in 5 μl aliquots into the wells of a black fluorescence microtiter plate, followed by addition of 5 μl of water and an incubation of 2-5 min to allow the samples to equilibrate to rt. Next, 5 μl of compound dissolved in DMSO is added to the vesicles. The reaction is initated by the addition of 5 μl MTP, followed by incubation for 30 min at room temperature. […] Time of incubation can be increased to measure low activity in different samples. In such situations, samples are prepared just prior to measuring fluorescence units. For this purpose, isopropanol is added to substrate vesicles about 5 min prior to fluorescence measurement as the fluorescence readings in isopropanol decrease with time.

[3] = system: C57BL/6 male mice; experiment: Murine food intake; format: in vivo; details: mice fasted overnight, 100 mg/kg PO, out through 6 hours
Experimental: C57BL/6 male mice, 18-22 grams (Wilmington, Mass. Charles River Labs), 10 mice per group, are fasted overnight (16 hrs). Mice are dosed PO at indicated dose (10 animals vehicle and 10 animals receive 100 mg/kg of test compound) and a preweighed amount of food is given to animals. Food is weighed every hour up to 6 hrs. Blood is collected at 2 to 6 hours.

[4] = molecular target: T1, MTP; details: As referenced in Wetterau et al., Science 282: 751, 1998; read-out: gMTP IC50 Triacylglycerol Transfer Assay (Example 3); cited from earlier work
[5] = HepG2, Table 6, assay of Example 2, read-out: IC50 ApoB Assay
[6] = Table 6, assay of Example 3, read-out: IC50 Enzyme Assay
[7] = HepG2, Tables 2-5, second symbol of the cell, read-out: IC50 Apo B Secretion Assay (Example 2)
[8] = Tables 2-5, first symbol of the cell, read-out: IC50 Tri-acylglycerol (TAG) Transfer Assay (Example 3)

T1 sequence (P55157 19-894, species assumed): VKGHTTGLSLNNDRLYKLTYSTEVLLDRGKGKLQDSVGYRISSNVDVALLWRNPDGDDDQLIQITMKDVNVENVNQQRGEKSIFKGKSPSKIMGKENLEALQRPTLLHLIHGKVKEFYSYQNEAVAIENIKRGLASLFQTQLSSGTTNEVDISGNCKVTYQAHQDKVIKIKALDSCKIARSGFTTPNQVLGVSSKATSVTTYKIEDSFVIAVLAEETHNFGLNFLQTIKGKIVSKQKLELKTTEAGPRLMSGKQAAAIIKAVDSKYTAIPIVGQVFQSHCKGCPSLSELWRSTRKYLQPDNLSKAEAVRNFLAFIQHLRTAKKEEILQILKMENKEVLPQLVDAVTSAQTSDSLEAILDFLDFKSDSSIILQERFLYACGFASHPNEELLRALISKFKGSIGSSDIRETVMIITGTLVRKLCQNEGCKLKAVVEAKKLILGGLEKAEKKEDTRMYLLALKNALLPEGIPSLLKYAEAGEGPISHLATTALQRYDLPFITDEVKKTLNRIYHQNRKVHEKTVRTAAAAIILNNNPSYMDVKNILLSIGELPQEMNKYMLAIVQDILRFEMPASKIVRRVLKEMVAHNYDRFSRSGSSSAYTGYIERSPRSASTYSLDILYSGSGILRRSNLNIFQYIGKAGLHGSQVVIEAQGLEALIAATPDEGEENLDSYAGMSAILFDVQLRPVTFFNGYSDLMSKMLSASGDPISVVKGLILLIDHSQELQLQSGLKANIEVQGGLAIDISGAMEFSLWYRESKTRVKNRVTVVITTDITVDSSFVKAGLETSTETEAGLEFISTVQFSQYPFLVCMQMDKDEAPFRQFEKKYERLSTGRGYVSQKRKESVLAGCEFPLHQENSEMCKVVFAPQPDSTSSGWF
T1 sequence (P07237 18-508 partner, species assumed): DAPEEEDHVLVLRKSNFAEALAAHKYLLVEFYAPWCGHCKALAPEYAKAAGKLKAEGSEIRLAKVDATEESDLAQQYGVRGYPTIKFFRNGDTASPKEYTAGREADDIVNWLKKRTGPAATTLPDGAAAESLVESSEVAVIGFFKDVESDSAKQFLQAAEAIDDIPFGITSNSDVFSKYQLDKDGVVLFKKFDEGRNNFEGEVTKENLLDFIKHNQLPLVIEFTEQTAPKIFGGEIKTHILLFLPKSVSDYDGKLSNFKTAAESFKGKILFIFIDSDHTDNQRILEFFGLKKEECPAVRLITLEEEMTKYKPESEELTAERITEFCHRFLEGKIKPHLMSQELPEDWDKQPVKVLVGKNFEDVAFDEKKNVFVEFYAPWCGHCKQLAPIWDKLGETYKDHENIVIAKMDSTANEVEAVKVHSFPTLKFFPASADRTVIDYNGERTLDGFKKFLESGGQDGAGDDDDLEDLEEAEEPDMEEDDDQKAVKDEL

| Structure (SMILES) | IC50 [1, 5] | IC50 [2, 6] | also measured |
| --- | --- | --- | --- |
| CN(Cc1ccc(F)cc1)C(=O)[C@@H](NC(=O)c1nc2ccc(NC(=O)c3ccccc3-c3ccc(C(F)(F)F)cc3)cc2s1)c1ccccc1 [Compound 32] | 17.3 nM | 145 nM | – |
| CN(Cc1ccc(F)cc1)C(=O)[C@@H](NC(=O)c1cn2cc(NC(=O)c3ccccc3-c3ccc(C(C)(C)C)cc3)ccc2n1)c1ccccc1 [Compound 33, (S)-6-(4′-tert-butylbiphenyl-2-ylcarboxamido)-N-(2-((4-fluorobenzyl)(methyl)amino)-2-oxo-1-phenylethyl)imidazo[1,2-a]pyridine-2-carboxamide] | 6.4 nM | 7.1 nM | – |
| CC(C)(C)c1ccc(-c2ccccc2C(=O)Nc2nc(-c3ccc(C(=O)N[C@H](C(=O)N4CCCC4)c4ccccc4)cc3)cs2)cc1 [Compound 36, (S)-4′-tert-butyl-N-(4-(4-(2-oxo-1-phenyl-2-(pyrrolidin-1-yl)ethylcarbamoyl)phenyl)thiazol-2-yl)biphenyl-2-carboxamide] | 6.7 nM | 5.7 nM | – |
| CN(Cc1ccc(F)cc1)C(=O)[C@@H](NC(=O)c1nc2ccc(NC(=O)c3ccccc3-c3csc(-c4ccccc4)n3)cc2s1)c1ccccc1 [Compound 38] | 22.4 nM | 24 nM | – |
| CN(Cc1ccc(F)cc1)C(=O)[C@@H](NC(=O)c1nc2ccc(NC(=O)c3ccccc3-c3cn4ccccc4n3)cc2s1)c1ccccc1 [Compound 40] | 4.2 nM | 13 nM | – |
| Cc1cccc(C(=O)Nc2ccc3nc(C(=O)N[C@H](C(=O)N(C)Cc4ccc(F)cc4)c4ccccc4)sc3c2)c1-c1ccc(C(C)(C)C)cc1 [Compound 41] | 2.9 nM | 4.7 nM | – |
| Cc1cccc(C(=O)Nc2nc(-c3cccc(C(=O)N[C@H](C(=O)N4CCCC4)c4ccccc4)c3)cs2)c1-c1ccc(C(C)(C)C)cc1 [Compound 42] | 8.5 nM | 4.5 nM | – |
| CC(C)c1ccc(-c2ccccc2C(=O)Nc2ccc3nc(C(=O)N[C@H](C(=O)N(C)Cc4ccc(F)cc4)c4ccccc4)sc3c2)cc1 [Compound 54, (S)—N-(2-((4-fluorobenzyl)(methyl)amino)-2-oxo-1-phenylethyl)-6-(4′-isopropylbiphenyl-2-ylcarboxamido)benzo[d]thiazole-2-carboxamide] | 6.2 nM | 15.3 nM and 11.2 nM | – |
| CC(C)c1ccc(-c2ccccc2C(=O)Nc2ccc3nc(C(=O)N[C@H](C(=O)N4CCCC4)c4ccccc4)sc3c2)cc1 [Compound 55, (S)-6-(4′-isopropylbiphenyl-2-ylcarboxamido)-N-(2-oxo-1-phenyl-2-(pyrrolidin-1-yl)ethyl)benzo[d]thiazole-2-carboxamide] | 6.7 nM | 8.1 nM and 3.9 nM | – |
| Cc1csc2nc(-c3ccccc3C(=O)Nc3ccc4nc(C(=O)N[C@H](C(=O)N(C)Cc5ccc(F)cc5)c5ccccc5)sc4c3)cn12 [Compound 64, (S)—N-(2-((4-fluorobenzyl)(methyl)amino)-2-oxo-1-phenylethyl)-6-(2-(3-methylimidazo[2,1-b]thiazol-6-yl)benzamido)benzo[d]thiazole-2-carboxamide] | 6.9 nM | 95.8 nM | – |
| CN(Cc1ccc(F)cc1)C(=O)[C@@H](NC(=O)c1nc2ccc(NC(=O)c3ccccc3-c3nc(C(C)(C)C)cs3)cc2s1)c1ccccc1 [Compound 66, (S)-6-(2-(4-tert-butylthiazol-2-yl)benzamido)-N-(2-((4-fluorobenzyl)(methyl)amino)-2-oxo-1-phenylethyl)benzo[d]thiazole-2-carboxamide] | 4 nM | 4.6 nM | – |
| CC(C)(C)c1ccc(-c2ccccc2C(=O)NC23CCC(C(=O)N[C@H](C(=O)N4CCCC4)c4ccccc4)(CC2)CC3)cc1 [Compound 67, (S)-4-(4′-tert-butylbiphenyl-2-ylcarboxamido)-N-(2-oxo-1-phenyl-2-(pyrrolidin-1-yl)ethyl)bicyclo[2.2.2]octane-1-carboxamide] | 1.8 nM | 2.4 nM | – |
| CN(Cc1ccc(F)cc1)C(=O)[C@@H](NC(=O)C12CCC(NC(=O)c3ccccc3-c3ccc(C(C)(C)C)cc3)(CC1)CC2)c1ccccc1 [Compound 68, (S)-4-(4′-tert-butylbiphenyl-2-ylcarboxamido)-N-(2-((4-fluorobenzyl)(methyl)amino)-2-oxo-1-phenylethyl)bicyclo[2.2.2]octane-1-carboxamide] | 5.6 nM | 9.9 nM | – |
| CCCN(C)C(=O)[C@@H](NC(=O)C12CCC(CNC(=O)c3cccc(C)c3-c3ccc(C(C)(C)C)cc3)(CC1)CC2)c1ccccc1 [Compound 73] | 11.8 nM | 3.5 nM | – |
| Cc1cccc(C(=O)NCC23CCC(C(=O)N[C@H](C(=O)N(C)Cc4ccc(F)cc4)c4ccccc4)(CC2)CC3)c1-c1ccc(C(C)(C)C)cc1 [Compound 75] | 5.9 nM | 56.2 nM | – |
| COc1cccc(C(=O)Nc2ccc3nc(C(=O)N[C@H](C(=O)N4CCCC4)c4ccccc4)sc3c2)c1-c1ccc(C(C)(C)C)cc1 [Compound 77] | 1.2 nM | 3.8 nM | – |
| COc1cccc(C(=O)Nc2ccc3nc(C(=O)N[C@H](C(=O)N(C)Cc4ccc(F)cc4)c4ccccc4)sc3c2)c1-c1ccc(C(C)(C)C)cc1 [Compound 78] | 2.4 nM | 20.5 nM and 7.9 nM | – |
| COc1cccc(C(=O)Nc2ccc3nc(C(=O)N[C@H](C(=O)N4CCCC4)c4ccccc4)sc3c2)c1-c1ccc(C(F)(F)F)cc1 [Compound 79] | 2.7 nM | 3.1 nM | – |
| Cc1cccc(C(=O)Nc2nc(-c3ccc(C(=O)N[C@H](C(=O)N4CCCC4)c4ccccc4)cc3)cs2)c1-c1ccc(C(C)(C)C)cc1 [Compound 83] | 13.2 nM | 10.2 nM | – |
| COc1cccc(C(=O)Nc2ccc3nc(C(=O)N[C@H](C(=O)N4CCCC4)c4ccccc4)sc3c2)c1-c1ccc(C(C)C)cc1 [Compound 84] | 1.1 nM | 3.6 nM | – |
| Cc1cccc(C(=O)Nc2ccc3nc(C(=O)N[C@H](C(=O)N4CCCC4)c4ccccc4)sc3c2)c1-c1ccc(C(C)C)cc1 [Compound 85] | 2.3 nM | 5.1 nM | – |
| Cc1cccc(C(=O)Nc2ccc3nc(C(=O)N[C@H](C(=O)N(C)Cc4ccc(F)cc4)c4ccccc4)sc3c2)c1-c1ccc(C(C)C)cc1 [Compound 86] | 1.5 nM | 9.9 nM and 5.2 nM | – |
| CN(Cc1ccc(F)cc1)C(=O)[C@@H](NC(=O)c1ccc2nc(NC(=O)c3ccccc3C3CCNCC3)ccc2c1)c1ccccc1 [Compound C1] | – | – | drop in food intake compared to control [3]: ~50%; IC50 [1, 7]: > 1010 nM; IC50 [2, 8]: > 1010 nM |
| CN(Cc1ccc(F)cc1)C(=O)[C@@H](NC(=O)c1ccc2nc(NC(=O)c3ccccc3C3CCNC3)ccc2c1)c1ccccc1 (stereo partly drawn) [Compound C3] | – | – | IC50 [1, 7]: > 1010 nM; IC50 [2, 8]: 101 to 1000 nM |
| CN(Cc1ccc(F)cc1)C(=O)[C@@H](NC(=O)c1ccc2nc(NC(=O)c3ccccc3-c3cn4ccsc4n3)ccc2c1)c1ccccc1 [Compound C5] | – | – | IC50 [1, 7]: < 100 nM; IC50 [2, 8]: < 100 nM |
| O=C1C[C@@H](c2ccc(O)cc2)Oc2cc(O)cc(O)c21 [compound 1, Naringenin, reference compound] | – | – | IC50 ([1]; HepG2, Table 1, HepG2 cells, read-out: gMTP IC50 ApoB Secretion Assay (Example 2)): 200000 nM; inhibition at 200 µM ([1]; at 200 μM, HepG2 cells): 50%; inhibition in Triacylglycerol Transfer Assay (Example 3) ([2]; at 200 μM): >90% inhibitionat 200 μM; inhibition at 200 µM ([2]; at 200 μM, read-out: inhibition in Triacylglycerol Transfer Assay (Example 3)): > 90% |
| O=C(NC1CCN(CCCCC2(C(=O)NCC(F)(F)F)c3ccccc3-c3ccccc32)CC1)c1ccccc1-c1ccc(C(F)(F)F)cc1 [compound 2, N-(2,2,2-trifluoroethyl)-9-(4-(4-(4′-(trifluoromethyl)biphenyl-2-ylcarboxamido)piperidin-1-yl)butyl)-9H-fluorene-9-carboxamide] | – | – | IC50 [4]: 0.5 nM |
| CN(Cc1ccc(F)cc1)C(=O)[C@@H](NC(=O)C12CCC(CNC(=O)c3ccccc3-c3ccc(C(C)(C)C)cc3)(CC1)CC2)c1ccccc1 [drawing 120/drawing 118] | – | – | IC50 [1, 7]: 101 to 1000 nM; IC50 [2, 8]: < 100 nM |
| CC(C)(C)c1ccc(-c2ccccc2C(=O)Nc2ccc3nc(C(=O)N[C@H](C(=O)N4CCCC4)c4ccccc4)sc3c2)cc1 [drawing 126/drawing 123] | – | – | IC50 [1, 7]: < 100 nM; IC50 [2, 8]: < 100 nM |

Reference: US20080249130A1, “Gut microsomal triglyceride transport protein inhibitors” (Sirtris Pharmaceuticals, Inc., priority 2007, published 2008)
